What all share (assay type): in vivo, C57BL/6 J mice
The test system of one test is subretinal fibrosis. The test is described as follows: Subretinal fibrosis in laser-induced neovascular wet macular degeneration model (Collagen type I staining, OCT). Conditions: for expression of Collagen type 1 compared to the PBS negative control group: 500 mg per kg i.p. daily from three days prior, NMN vs PBS p<0.001, NR vs PBS p<0.002; for production of subretinal fibrosis associated with neovascular macular degeneration: FIG. 3 legend. The protocol: (§1) In this study, 8-week-old (18-20 g) C57BL/6 J adult mice were used. The mice were maintained according to the guidelines for the use of animals in ophthalmic and vision research set forth by the Association for Research in Vision and Ophthalmology (ARVO). All animal experiments were approved by the Institutional Animal Care and Use Committee (IACUC) of Yonsei University College of Medicine (IACUC number: 2022-0279). C57BL/6 J mice were maintained on a 12:12 hour light/dark cycle.
(§2) Mice were anesthetized using a 1:1 mixture of tiletamine and zolazepam (15 mg per kg body weight) along with Xylazine hydrochloride (10 mg per kg body weight). The pupils were dilated using Phenylephrine (0.5%) and tropicamide (0.5%). During the anesthesia and pupil dilation, a heating pad was used to maintain the body temperature at 37° C.
(§3) After confirming pupil dilation, the mice were positioned on the support of the laser device (GYC-1000 Specifications, 532 nm). A drop of 2% Hypromellose solution was placed on the corneal surface, and a glass cover slip was positioned to contact the cornea for visualization of the fundus. Additionally, the height and distance of the support were adjusted to ensure the laser was accurately positioned on the retina.
(§4) The settings for the laser used in the experiment were as follows: output: 150 mW/spot size: 50 μm, time: 50 ms. After positioning the optic nerve in the center, the laser direction was indicated using a clock face, applying a total of 4 laser shocks at the 3 o'clock, 6 o'clock, 9 o'clock, and 12 o'clock positions, once each. The successful performance of the laser shock was confirmed by the generation of bubbles in the retina, with no hemorrhage observed in the retina.
(§5) To compare the choroidal neovascularization (CNV) induced by the laser shock, mice were sacrificed 7 days after the laser shock, and to evaluate the fibrosis induced by the laser shock in the sub-retinal area, mice were sacrificed 4 weeks after the laser shock.
(§6) In this study, Nicotinamide mononucleotide (NMN) purchased from ORIENTAL YEAST CO and Nicotinamide riboside (NR) purchased from ChromaDex were used. Starting three days before the creation of the laser-induced mouse model, NMN and NR were administered intraperitoneally daily at a concentration of 500 mg per kg of body weight.
(§7) Mice were sacrificed using carbon dioxide, and the extracted eyeballs were fixed in 1% paraformaldehyde for 1 hour. After fixation, they were sequentially treated with 10%, 20%, and 30% sucrose solutions for 1 hour each. For sectioning, the eyeballs were positioned so that the connection between the optic nerve and the center of the cornea was horizontally aligned using OCT compound, and rapid freezing was performed using liquid nitrogen vapor. The eyeballs were stored at −70° C.
(§8) The eyeballs were sectioned to a thickness of […], and thereafter, staining procedures were performed using primary and secondary antibodies. After staining, a drop of mounting media was applied to the tissue on the slide, and a cover glass was placed over it.
For flat mounting, the muscle, cornea, lens, and neural retina were removed. Then, the retinal pigment epithelium/choroid/sclera complex was radially incised eight times to create a petal-like structure. It was placed in a 1 ml microtube and stained with primary and secondary antibodies. […]
(§9) The size of neovascularization and fibrotic areas was measured using ImageJ software. […] Then, a threshold was applied to measure the size, followed by quantification of pixels. […]

Test [1] deals with choroidal neovascularization (CNV) mouse model. The test is described as follows: Laser-induced choroidal neovascularization (CNV) mouse model of wet AMD: size of neovascularization (FFA, Isolectin B4 staining). The following applies: 7 days after laser; for size of neovascularization compared to the PBS control group: NMN/NR 500 mg per kg i.p. daily for 10 days, Aflibercept intravitreal, FFA and Isolectin B4 staining, p<0.001 vs PBS. The protocol:
as §1, §2, §3, §4, §5
In this study, Nicotinamide mononucleotide (NMN) purchased from ORIENTAL YEAST CO and Nicotinamide riboside (NR) purchased from ChromaDex were used. Starting three days before the creation of the laser-induced mouse model, NMN and NR were administered intraperitoneally daily at a concentration of 500 mg per kg of body weight. […]
After the staining process was completed, the flat-mounted tissue was spread on the slide, a drop of mounting media was applied, and a glass cover was placed over it. Fluorescent images were taken using a fluorescence microscope (Olympus; BX43).
as §9

Test [2] deals with senescence markers p16INK4a, p21CIP1, γ-H2AX, p53 and SA-β-gal in retinal pigment epithelium/choroid/sclera complex. The test is described as follows: Senescence phenotype in laser-induced neovascular wet AMD model (SA-β-gal staining, immunofluorescence of senescence markers). The protocol: as §1, §2, §3, §4, §6, §7, §8
The primary antibodies used in this study are as follows: Isolectin GS-IB4, Alexa Fluor™ 488 conjugate (121411); Collagen I antibody (ab34710); p16INK4a antibody (ab108349); gamma H2A.X antibody (ab2893); p53 antibody (sc-126); p21CIP1 antibody (sc-6246).
Mouse eyes were enucleated, and the anterior segments were removed to isolate the retinal pigment epithelium/choroid/sclera complex. The complex was rinsed with cold PBS and then fixed at room temperature for 20 minutes using the fixative solution provided in the SA-β-galactosidase (SA-β-GAL) staining kit. Staining was performed using the staining solution mixture provided according to the manufacturer's instructions (BioVision; #K320). After overnight staining at 37° C., the samples were incubated at 55° C. for 45 minutes with 10% H2O2 to remove the pigment. Following rinsing with PBS, the samples were flattened using forceps and a surgical knife. Images were captured using a fluorescent microscope (Olympus; BX43).
SA-β-gal staining analysis, an early method for identifying senescent cells in tissues, was used. Additionally, the expression of senescence markers such as p16INK4a, p21CIP1, γ-H2AX, and p53 is increased in senescent cells. […]

The mark [3] stands for this setting: seventh day post-laser induction, immunofluorescence staining.

In the case of `NC(=O)c1ccc[n+]([C@@H]2O[C@H](CO)[C@@H](O)[C@H]2O)c1` [NR, nicotinamide riboside], the “expression of Collagen type 1 compared to the PBS negative control group” value in the test on subretinal fibrosis (28th day post-laser shock) was “significantly reduced”. In addition, the “production of subretinal fibrosis associated with neovascular macular degeneration” value in the test on subretinal fibrosis is “inhibit”. Moreover, in test [1], the “size of neovascularization compared to the PBS control group” value (from here on “size … compared to the PBS control group”) was “significantly reduced”.

Turning to Aflibercept [reference compound], the “neovascular size compared to the NMN and NR groups” value in test [1] (Aflibercept vs NMN p>0.99, Aflibercept vs NR p>0.99) was “no significant difference”. Further, the “size … compared to the PBS control group” value in test [1] is recorded as “significant reduction”.

In the case of nicotinamide mononucleotide [NMN], the “fibrosis by OCT and immunofluorescence staining on sections compared to the negative control group” value in the test with subretinal fibrosis (28th day post-laser shock, 500 mg per kg i.p. daily) is on record as “reduced”. Further, the “expression of Collagen type 1 compared to the PBS negative control group” value with subretinal fibrosis (28th day post-laser shock) is listed as “significantly reduced”. In addition, the “production of subretinal fibrosis associated with neovascular macular degeneration” value in the test with subretinal fibrosis is listed as “inhibit”. In addition, the “aging phenotype induced in a neovascular wet AMD model” value in test [2] (FIG. 2 legend) was “inhibits”. Moreover, in test [2] (seventh day post-laser induction, NMN 500 mg per kg i.p. daily), the “SA-β-gal staining of the retinal pigment epithelium/choroid/sclera complex compared to the PBS group” value is listed as “reduced”. Moreover, in test [2] (setting [3]), the “expression of p16INK4a protein compared to PBS” value is listed as “decreased”, the “expression of p21CIP1 protein compared to PBS” value is recorded as “decreased”, the “expression of p53 protein compared to PBS” value is “decreased” and the “expression of γ-H2AX protein compared to PBS” value was “decreased”. In addition, the “size … compared to the PBS control group” value in test [1] is “significantly reduced”.

The values are drawn from patent publication US20250170118A1, “PHARMACEUTICAL COMPOSITION FOR PREVENTING OR TREATING WET AGE-RELATED MACULAR DEGENERATION” (UIF (University Industry Foundation), Yonsei University, priority 2023, published 2025).
